In the supplement of paper PMC10307832:

Assays:
Test in all cases: relative viability (nuclei count vs DMSO), 5 days (fraction); higher = more cells survive
[1] = system: COR-L 105
In short: (§1)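 Lung cancer cell lines were pin-tool dosed in 1536-well plates on the day after seeding, with either a lone drug or a fixed anchor-drug dose plus five library-drug doses (not always all listed) in √10 steps. Nuclei were counted on 4× images after 5 days. Relative viability is the ratio of treated-well to vehicle-well nuclei counts, with each value a median of duplicate plates.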

[2] = system: COR-L23
In short: as §1

[3] = system: HARA
In short: as §1

[4] = system: HCC-15
In short: as §1

[5] = system: HOP-62
In short: as §1

[6] = system: NCI-H1355
In short: as §1

[7] = system: NCI-H1395
In short: as §1

[8] = system: NCI-H1734
In short: as §1

[9] = system: NCI-H1755
In short: as §1

[10] = system: NCI-H1792
In short: as §1

[11] = system: NCI-H1793
In short: as §1

[12] = system: NCI-H1993
In short: as §1

[13] = system: NCI-H2009
In short: as §1

[14] = system: NCI-H2170
In short: as §1

[15] = system: NCI-H2228
In short: as §1

[16] = system: NCI-H2347
In short: as §1

[17] = system: NCI-H358
In short: as §1

[18] = system: NCI-H647
In short: as §1

[19] = system: NCI-H838
In short: as §1

[20] = system: SK-MES-1
In short: as §1

[21] = system: UMC-11
In short: as §1

With `CCN(CC)CCCCNc1ncc2cc(-c3cc(OC)cc(OC)c3)c(NC(=O)NC(C)(C)C)nc2n1` + CS(=O)(=O)N1CCN(Cc2cc3nc(-c4cccc5[nH]ncc45)nc(N4CCOCC4)c3s2)CC1 [Pictilisib] (partner 1 µM) the relative viability ([1]; first compound 0.01 µM) was 0.368, the relative viability ([1]; first compound 0.03162 µM) was 0.394 and the relative viability ([1]; first compound 0.1 µM) was 0.418. It also gave a relative viability ([1]; first compound 0.3162 µM) of 0.445, a relative viability ([1]; first compound 1 µM) of 0.392 and a relative viability ([2]; first compound 0.01 µM) of 0.781. The relative viability ([2]; first compound 0.03162 µM) was 0.955, the relative viability ([2]; first compound 0.1 µM) was 0.824 and the relative viability ([2]; first compound 0.3162 µM) was 0.809. For the same compound, the relative viability ([2]; first compound 1 µM) was 0.8, the relative viability ([3]; first compound 0.01 µM) was 0.421 and the relative viability ([3]; first compound 0.03162 µM) was 0.356. The relative viability ([3]; first compound 0.1 µM) was 0.307, the relative viability ([3]; first compound 0.3162 µM) was 0.485 and the relative viability ([3]; first compound 1 µM) was 0.176. The relative viability ([4]; first compound 0.01 µM) was 0.813, the relative viability ([4]; first compound 0.03162 µM) was 0.813 and the relative viability ([4]; first compound 0.1 µM) was 0.766. It also gave a relative viability ([4]; first compound 0.3162 µM) of 0.929, a relative viability ([4]; first compound 1 µM) of 0.715 and a relative viability ([5]; first compound 0.01 µM) of 0.732. The relative viability ([5]; first compound 0.03162 µM) was 0.772, the relative viability ([5]; first compound 0.1 µM) was 0.582 and the relative viability ([5]; first compound 0.3162 µM) was 0.747. For the same compound, the relative viability ([5]; first compound 1 µM) was 0.985, the relative viability ([6]; first compound 0.01 µM) was 0.327 and the relative viability ([6]; first compound 0.03162 µM) was 0.375. For the same compound, the relative viability ([6]; first compound 0.1 µM) was 0.478, the relative viability ([6]; first compound 0.3162 µM) was 0.569 and the relative viability ([6]; first compound 1 µM) was 0.461. For the same compound, the relative viability ([7]; first compound 0.03162 µM) was 0.486, the relative viability ([7]; first compound 0.1 µM) was 0.949 and the relative viability ([7]; first compound 0.3162 µM) was 0.479. The relative viability ([7]; first compound 1 µM) was 0.346, the relative viability ([8]; first compound 0.01 µM) was 0.452 and the relative viability ([8]; first compound 0.03162 µM) was 0.424. It also gave a relative viability ([8]; first compound 0.1 µM) of 0.54, a relative viability ([8]; first compound 0.3162 µM) of 0.427 and a relative viability ([8]; first compound 1 µM) of 0.395. For the same compound, the relative viability ([9]; first compound 0.01 µM) was 0.403, the relative viability ([9]; first compound 0.03162 µM) was 0.386 and the relative viability ([9]; first compound 0.1 µM) was 0.479. The relative viability ([9]; first compound 0.3162 µM) was 0.381, the relative viability ([9]; first compound 1 µM) was 0.258 and the relative viability ([10]; first compound 0.01 µM) was 0.249. It also gave a relative viability ([10]; first compound 0.03162 µM) of 0.282, a relative viability ([10]; first compound 0.1 µM) of 0.241 and a relative viability ([10]; first compound 0.3162 µM) of 0.265. The relative viability ([10]; first compound 1 µM) was 0.225, the relative viability ([11]; first compound 0.01 µM) was 0.286 and the relative viability ([11]; first compound 0.1 µM) was 0.322. It also gave a relative viability ([11]; first compound 0.3162 µM) of 0.233, a relative viability ([11]; first compound 1 µM) of 0.224 and a relative viability ([12]; first compound 0.01 µM) of 0.759. It also gave a relative viability ([12]; first compound 0.03162 µM) of 0.947, a relative viability ([12]; first compound 0.1 µM) of 0.861 and a relative viability ([12]; first compound 0.3162 µM) of 0.86. It also gave a relative viability ([12]; first compound 1 µM) of 0.91, a relative viability ([13]; first compound 0.01 µM) of 0.727 and a relative viability ([13]; first compound 0.03162 µM) of 0.79. For the same compound, the relative viability ([13]; first compound 0.1 µM) was 0.824, the relative viability ([13]; first compound 0.3162 µM) was 0.965 and the relative viability ([13]; first compound 1 µM) was 0.815. It also gave a relative viability ([14]; first compound 0.01 µM) of 0.326, a relative viability ([14]; first compound 0.03162 µM) of 0.27 and a relative viability ([14]; first compound 0.1 µM) of 0.299. For the same compound, the relative viability ([14]; first compound 0.3162 µM) was 0.317, the relative viability ([14]; first compound 1 µM) was 0.322 and the relative viability ([15]; first compound 0.01 µM) was 0.441. For the same compound, the relative viability ([15]; first compound 0.03162 µM) was 0.311, the relative viability ([15]; first compound 0.1 µM) was 0.353 and the relative viability ([15]; first compound 0.3162 µM) was 0.539. For the same compound, the relative viability ([15]; first compound 1 µM) was 0.246, the relative viability ([16]; first compound 0.01 µM) was 0.772 and the relative viability ([16]; first compound 0.03162 µM) was 0.656. It also gave a relative viability ([16]; first compound 0.1 µM) of 0.611, a relative viability ([16]; first compound 0.3162 µM) of 0.89 and a relative viability ([16]; first compound 1 µM) of 0.655. It also gave a relative viability ([17]; first compound 0.01 µM) of 0.353, a relative viability ([17]; first compound 0.03162 µM) of 0.282 and a relative viability ([17]; first compound 0.1 µM) of 0.38. The relative viability ([17]; first compound 0.3162 µM) was 0.35, the relative viability ([17]; first compound 1 µM) was 0.3 and the relative viability ([18]; first compound 0.03162 µM) was 0.471. It also gave a relative viability ([18]; first compound 0.1 µM) of 0.486, a relative viability ([18]; first compound 0.3162 µM) of 0.465 and a relative viability ([18]; first compound 1 µM) of 0.348. For the same compound, the relative viability ([19]; first compound 0.01 µM) was 0.441, the relative viability ([19]; first compound 0.03162 µM) was 0.4 and the relative viability ([19]; first compound 0.1 µM) was 0.395. The relative viability ([19]; first compound 0.3162 µM) was 0.383, the relative viability ([19]; first compound 1 µM) was 0.244 and the relative viability ([20]; first compound 0.01 µM) was 0.307. The relative viability ([20]; first compound 0.03162 µM) was 0.334, the relative viability ([20]; first compound 0.1 µM) was 0.406 and the relative viability ([20]; first compound 0.3162 µM) was 0.425. It also gave a relative viability ([20]; first compound 1 µM) of 0.348, a relative viability ([21]; first compound 0.01 µM) of 0.85 and a relative viability ([21]; first compound 0.03162 µM) of 0.806. For the same compound, the relative viability ([21]; first compound 0.1 µM) was 0.987, the relative viability ([21]; first compound 0.3162 µM) was 0.989 and the relative viability ([21]; first compound 1 µM) was 0.752.
